In the NIST ThermoML archive (doi:10.1016/j.jct.2019.05.010):
Values joined by “and” are separate entries in the source; they are usually repeats but may differ in a detail not shown here. Identical values can stand only once.

Assays:
[1] = 101.33 kPa, Crystal, Vacuum adiabatic calorimetry
[2] = molar heat capacity at constant pressure; settings: 101.33 kPa, Crystal, Vacuum adiabatic calorimetry

CC(=O)[CH-]C(C)=O.CC(=O)[CH-]C(C)=O.[Cu+2] [bis(2,4-pentanedionato-O,O')copper]
Settings | molar entropy, [1] [J/K/mol] | molar heat capacity at constant pressure, [2]
5 K | 0.229 | 0.667 J/K/mol
6.54 K | – | 1.427 J/K/mol
9.03 K | – | 3.433 J/K/mol
10 K | 1.632 | 4.4 J/K/mol
11.38 K | – | 6.016 J/K/mol
13.66 K | – | 9.127 J/K/mol
15 K | 4.62 | 11.23 J/K/mol
16.64 K | – | 13.96 J/K/mol
20 K | 9.07 | 20.52 J/K/mol and 20.5 J/K/mol
22.84 K | – | 26.59 J/K/mol
25 K | 14.79 | 31.33 J/K/mol
25.85 K | – | 33.31 J/K/mol
29.17 K | – | 40.64 J/K/mol
30 K | 21.5 | 42.65 J/K/mol
32.85 K | – | 49.04 J/K/mol
35 K | 28.92 | 53.76 J/K/mol
36.85 K | – | 57.9 J/K/mol
40 K | 36.8 | 64.51 J/K/mol
40.6 K | – | 65.62 J/K/mol
44.11 K | – | 72.98 J/K/mol
45 K | 44.99 | 74.72 J/K/mol
48.18 K | – | 80.84 J/K/mol
50 K | 53.37 | 84.29 J/K/mol
52.32 K | – | 88.52 J/K/mol
55 K | 61.8 | 93.1 J/K/mol
56.3 K | – | 95.12 J/K/mol
60 K | 70.3 | 101 J/K/mol
60.23 K | – | 101.6 J/K/mol
64.13 K | – | 107 J/K/mol
65 K | 78.6 | 108.3 J/K/mol
68.13 K | – | 112.6 J/K/mol
70 K | 86.9 | 115.1 J/K/mol
72.3 K | – | 118.2 J/K/mol
76.49 K | – | 123.2 J/K/mol
80 K | 103.1 | 127.4 J/K/mol
80.07 K | – | 127.4 J/K/mol
80.38 K | – | 128 J/K/mol
85.04 K | – | 132.9 J/K/mol
89.68 K | – | 137.8 J/K/mol
90 K | 118.8 | 138.1 J/K/mol
94.05 K | – | 142.1 J/K/mol
98.21 K | – | 146 J/K/mol
100 K | 133.8 | 147.6 J/K/mol
102.43 K | – | 149.8 J/K/mol
106.73 K | – | 153.5 J/K/mol
110 K | 148.3 | 156.4 J/K/mol
110.87 K | – | 157.3 J/K/mol
115.52 K | – | 160.9 J/K/mol
120 K | 162.3 | 164.5 J/K/mol
120.66 K | – | 165 J/K/mol
125.63 K | – | 169 J/K/mol
130 K | 175.7 | 172.1 J/K/mol
130.45 K | – | 172.4 J/K/mol
135.15 K | – | 176 J/K/mol
139.73 K | – | 179.1 J/K/mol
140 K | 188.8 | 179.4 J/K/mol
144.22 K | – | 182.5 J/K/mol
148.61 K | – | 185.6 J/K/mol
150 K | 201.4 | 186.6 J/K/mol
152.93 K | – | 188.8 J/K/mol
157.17 K | – | 191.5 J/K/mol
160 K | 213.6 | 193.5 J/K/mol
161.35 K | – | 194.4 J/K/mol
165.97 K | – | 197.3 J/K/mol
170 K | 225.6 | 199.8 J/K/mol
171.03 K | – | 200.5 J/K/mol
176 K | – | 203.5 J/K/mol
180 K | 237.2 | 206.2 J/K/mol
180.9 K | – | 206.9 J/K/mol
185.74 K | – | 210.1 J/K/mol
190 K | 248.5 | 213 J/K/mol
190.5 K | – | 213.3 J/K/mol
195.21 K | – | 216.6 J/K/mol
199.87 K | – | 219.6 J/K/mol
200 K | 259.6 | 219.6 J/K/mol
204.46 K | – | 222.6 J/K/mol
209.01 K | – | 225.1 J/K/mol
210 K | 270.5 | 225.9 J/K/mol
213.51 K | – | 228.2 J/K/mol
217.97 K | – | 231.3 J/K/mol
220 K | 281.1 | 232.5 J/K/mol
222.38 K | – | 234.3 J/K/mol
226.74 K | – | 236.8 J/K/mol
230 K | 291.6 | 238.9 J/K/mol
231.06 K | – | 239.5 J/K/mol
235.35 K | – | 242.2 J/K/mol
239.58 K | – | 245.1 J/K/mol
240 K | 301.9 | 245.4 J/K/mol
243.77 K | – | 247.8 J/K/mol
248.11 K | – | 250.8 J/K/mol
250 K | 312.1 | 252 J/K/mol
252.68 K | – | 253.8 J/K/mol
257.27 K | – | 256.6 J/K/mol
260 K | 322.1 | 258.5 J/K/mol
261.9 K | – | 259.8 J/K/mol
266.49 K | – | 262.7 J/K/mol
270 K | 331.9 | 265.2 J/K/mol
271.04 K | – | 266.1 J/K/mol
275.54 K | – | 268.5 J/K/mol
280 K | 341.7 | 271.7 J/K/mol
280.45 K | – | 272.3 J/K/mol
285.75 K | – | 275.1 J/K/mol
290 K | 351.4 | 278.3 J/K/mol
291 K | – | 279 J/K/mol
296.16 K | – | 282.5 J/K/mol
298.15 K | 359.1 | 283.9 J/K/mol
300 K | 360.9 | 285.2 J/K/mol
300.51 K | – | 285.7 J/K/mol
304.76 K | – | 288.6 J/K/mol
308.97 K | – | 291.5 J/K/mol
310 K | 370.4 | 292.4 J/K/mol
313 K | 373.2 | 294.5 J/K/mol
313.16 K | – | 294.6 J/K/mol
